Laboratory results as given in patent US20070128217A1 (priority 2003, published 2007).

How the values were obtained:
[1] = test system: antibodies in sera from SARS patients (sera 1a, 1b, 2, 6, 37, 62, London, SARS-yellow, SARS-green); assay type: binding, human; design: Binding of serum 6 to linear peptides of protein X1 of SARS-CoV Urbani / Binding of serum 37 to linear peptides of protein X1 of SARS-CoV Urbani / Binding of serum 6 to looped/cyclic peptide (PEPSCAN-ELISA) / Binding of serum 37 to looped/cyclic peptide (PEPSCAN-ELISA) / Binding of serum 37 to looped/cyclic peptides of protein X1 of SARS-CoV Urbani / Binding of serum 6 to linear peptides of protein X2 / Binding of serum 37 to linear peptides of protein X2 / Binding of serum 37 to looped/cyclic peptides of protein X2 of SARS-CoV Urbani / Binding of serum 6 to linear peptides of protein M of SARS-CoV Urbani / Binding of serum 37 to linear peptides of protein M of SARS-CoV Urbani / Binding of serum 6 to looped/cyclic peptides of protein M of SARS-CoV Urbani / Binding of serum 37 to looped/cyclic peptides of protein M of SARS-CoV Urbani / Binding of serum 6 to linear peptides of protein X3 of SARS-CoV Urbani / Binding of serum 37 to linear peptides of protein X3 of SARS-CoV Urbani / Binding of serum 37 to looped/cyclic peptides of protein X3 of SARS-CoV Urbani / Binding of serum 6 to linear peptides of protein X4 of SARS-CoV Urbani / Binding of serum 37 to linear peptides of protein X4 of SARS-CoV Urbani / Binding of serum 37 to looped/cyclic peptides of protein X4 of SARS-CoV Urbani / Binding of serum 6 to linear peptides of protein X5 of SARS-CoV Urbani / Binding of serum 37 to linear peptides of protein X5 of SARS-CoV Urbani / Binding of serum 37 to looped/cyclic peptides of protein X5 of SARS-CoV Urbani / Binding of serum 6 to linear peptides of protein N of SARS-CoV Urbani / Binding of serum 37 to linear peptides of protein N of SARS-CoV Urbani / Binding of serum 6 to linear peptide (PEPSCAN-ELISA) / Binding of serum 1a to looped/cyclic peptides of protein N of SARS-CoV Urbani / Binding of serum 1b to looped/cyclic peptides of protein N of SARS-CoV Urbani / Binding of serum 2 to looped/cyclic peptides of protein N of SARS-CoV Urbani / Binding of serum 6 to looped/cyclic peptides of protein N of SARS-CoV Urbani / Binding of serum 37 to looped/cyclic peptides of protein N of SARS-CoV Urbani / Binding of serum 62 to looped/cyclic peptides of protein N of SARS-CoV Urbani / Binding of serum London to looped/cyclic peptides of protein N of SARS-CoV Urbani / Binding of serum SARS-green to looped/cyclic peptides of protein N of SARS-CoV Urbani: unit not given here
[2] = test system: control sera (pooled serum of ten healthy LUMC hospital workers; commercial negative donor pooled serum from the Dutch bloodbank); assay type: binding, human; design: Binding of Control serum LUMC to linear peptides / Binding of Control serum Blood-bank to linear peptides / Binding of Control serum LUMC to looped peptides / Binding of Control Serum Blood-Bank to Looped peptides / Binding of Control serum LUMC to linear peptides of the protein M of SARS-CoV Urbani / Binding of Control serum Blood-bank to linear peptides of the protein M of SARS-CoV Urbani / Binding of Control serum LUMC to looped peptides of the protein M of SARS-CoV Urbani / Binding of Control Serum Blood-Bank to Looped peptides of the protein M of SARS-CoV Urbani: unit not given here
[3] = test system: recombinant human anti-SARS-CoV antibody 03-018; assay type: binding; design: Binding of antibody 03-018 to linear peptides of the N protein of SARS-CoV Urbani / Binding of antibody 03-018 to looped/cyclic peptides of the N protein of SARS-CoV Urbani: unit not given here
[4] = test system: rabbit serum obtained by immunizing a rabbit with the SARS-CoV strain Frankfurt 1; assay type: binding; design: Binding of a rabbit serum to linear peptides / Binding of a rabbit serum to looped peptides / Rabbit serum linear peptides / Rabbit serum looped peptides / Binding of a rabbit serum to linear peptides of protein N of SARS-CoV Urbani (Rabbit serum linear peptides) / Binding of a rabbit serum to looped/cyclic peptides of protein N of SARS-CoV Urbani (Rabbit serum looped peptides): unit not given here

Sequence | Binding of serum 1a to looped/cyclic peptides of protein N of SARS-CoV Urbani [1] | Binding of serum 1b to looped/cyclic peptides of protein N of SARS-CoV Urbani [1] | Binding of serum 2 to looped/cyclic peptides of protein N of SARS-CoV Urbani [1] | Binding of serum 6 to looped/cyclic peptides of protein N of SARS-CoV Urbani [1] | Binding of serum 37 to looped/cyclic peptides of protein N of SARS-CoV Urbani [1] | Binding of serum 62 to looped/cyclic peptides of protein N of SARS-CoV Urbani [1] | Binding of serum London to looped/cyclic peptides of protein N of SARS-CoV Urbani [1] | Binding of serum SARS-green to looped/cyclic peptides of protein N of SARS-CoV Urbani [1] | Binding of serum SARS-yellow to looped/cyclic peptides of protein N of SARS-CoV Urbani [1] | Binding of Control Serum Blood-Bank to Looped peptides [2] | Binding of Control serum Blood-bank to linear peptides [2] | Binding of Control serum LUMC to linear peptides [2] | Binding of Control serum LUMC to looped peptides [2] | Binding of antibody 03-018 to linear peptides of the N protein of SARS-CoV Urbani [3] | Binding of antibody 03-018 to looped/cyclic peptides of the N protein of SARS-CoV Urbani [3] | Binding of a rabbit serum to linear peptides of protein N of SARS-CoV Urbani (Rabbit serum linear peptides) [4] | Binding of a rabbit serum to looped/cyclic peptides of protein N of SARS-CoV Urbani (Rabbit serum looped peptides) [4] | Binding of serum 1a to linear peptides of protein N of SARS-CoV Urbani [1] | Binding of serum 1b to linear peptides of protein N of SARS-CoV Urbani [1] | Binding of serum 2 to linear peptides of protein N of SARS-CoV Urbani [1] | other results
AAEASKKPRQKRTAT | 0.2 | 0.1 | 0.2 | 0.1 | 0.4 | 0.3 | 0.3 | 0.1 | 0.2 | 0.5 | 0.8 | 0.9 | 0.5 | 0.1 | 0.2 | 0.3 | 0.5 |  |  |  | Recognition of the peptide by sera of SARS-CoV infected individuals, and form (linear, looped/cyclic) in which it is recognized [1]: recognized in linear form
ADMDDFSRQLQNSMS | 0.3 | 0.2 | 0.2 | 0.0 | 0.4 | 0.3 | 0.2 | 0.1 | 0.2 |  |  |  |  | 0.1 | 0.1 | 0.2 | 0.4 | 0.3 | 0.2 | 0.2 | Binding of serum 6 to linear peptides of protein N of SARS-CoV Urbani [1]: 1.5; Binding of serum 37 to linear peptides of protein N of SARS-CoV Urbani [1]: 0.7; Binding of serum 62 to linear peptides of protein N of SARS-CoV Urbani [1]: 0.6; Binding of serum London to linear peptides of protein N of SARS-CoV Urbani [1]: 0.8; Binding of serum SARS-green to linear peptides of protein N of SARS-CoV Urbani [1]: 0.3; Binding of serum SARS-yellow to linear peptides of protein N of SARS-CoV Urbani [1]: 0.7; Control Serum Blood-Bank Looped peptides [2]: 0.4; Control serum Blood-bank linear peptides [2]: 0.8; Control serum LUMC linear peptides [2]: 0.7; Control serum LUMC looped peptides [2]: 0.2
AFGRRGPEQTQGNFG | 0.3 | 0.1 | 0.3 | 0.1 | 0.3 | 0.3 | 0.3 | 0.1 | 0.1 | 0.4 | 0.6 | 0.5 | 0.3 | 0.1 | 0.2 | 0.1 | 0.0 |  |  |  | Binding of serum 1a to linear peptide (PEPSCAN-ELISA) [1]: 0.2; Binding of serum 1b to linear peptide (PEPSCAN-ELISA) [1]: 0.1; Binding of serum 2 to linear peptide (PEPSCAN-ELISA) [1]: 0.2; Binding of serum 6 to linear peptide (PEPSCAN-ELISA) [1]: 0.3; Binding of serum 37 to linear peptide (PEPSCAN-ELISA) [1]: 0.5; Binding of serum 62 to linear peptide (PEPSCAN-ELISA) [1]: 0.7; Binding of serum London to linear peptide (PEPSCAN-ELISA) [1]: 0.8; Binding of serum SARS-green to linear peptide (PEPSCAN-ELISA) [1]: 0.4; Binding of serum SARS-yellow to linear peptide (PEPSCAN-ELISA) [1]: 0.6
AIKLDDKDPQFKDNV | 0.3 | 0.2 | 0.3 | 0.2 | 0.5 | 0.4 | 0.4 | 0.4 | 0.2 |  |  |  |  | 0.1 | 0.2 | 0.1 | 0.3 | 0.2 | 0.1 | 0.2 | Binding of serum 6 to linear peptides of protein N of SARS-CoV Urbani [1]: 0.2; Binding of serum 37 to linear peptides of protein N of SARS-CoV Urbani [1]: 0.8; Binding of serum 62 to linear peptides of protein N of SARS-CoV Urbani [1]: 0.9; Binding of serum London to linear peptides of protein N of SARS-CoV Urbani [1]: 0.6; Binding of serum SARS-green to linear peptides of protein N of SARS-CoV Urbani [1]: 0.7; Binding of serum SARS-yellow to linear peptides of protein N of SARS-CoV Urbani [1]: 0.6; Control Serum Blood-Bank Looped peptides [2]: 0.5; Control serum Blood-bank linear peptides [2]: 0.7; Control serum LUMC linear peptides [2]: 0.8; Control serum LUMC looped peptides [2]: 0.5
TATKQYNVTQAFGRR |  |  |  |  |  |  |  |  |  | 0.9 | 0.8 | 0.8 | 1.0 | 0.1 | 0.3 |  |  |  |  |  | Recognition of the peptide by the rabbit serum [4]: recognized
TTLPKGFYAEGSRGG |  |  |  |  |  |  |  |  |  | 0.6 | 0.6 | 0.7 | 0.5 | 0.1 | 0.2 | 0.2 | 0.4 |  |  |  | 
